Measured values as given in the Kinase Knowledgebase extract (Sharma et al. 2016).
Where “and” joins values, the source holds several entries; their conditions need not be identical. Equal entries are not always repeated.

Columns and labels:
[1] = tested on: MAPK14 (rat); test: Cell-Based Assay; details: mesencephalic neurons
[2] = tested on: MAPK14 (rat); test: Animal Model; details: mesencephalon tissue
[3] = tested on: MAPK14 (rat); test: Cell-Based Assay; details: mesencephalic neurons; remark: listed apart in the source

| Structure (SMILES) | cell count [1] | response [1] | cell count [2] | cell count [3] | response [3] |
| --- | --- | --- | --- | --- | --- |
| Oc1ccc(-c2nc(-c3ccc(F)cc3)c(-c3ccncc3)[nH]2)cc1 | 283 cm-2 | 600 cm2 and 473 cm2 |  |  |  |
| O=[N+]([O-])c1ccc(-c2nc(-c3ccc(F)cc3)c(-c3ccncc3)[nH]2)cc1 | 283 cm-2 | 400 cm2 and 570 cm2 | 3020 | 421 cm-2 | 454 cm2 |
